Experimental data published in ChEMBL document CHEMBL1201862, “PubChem BioAssay data set” (2004).
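These data come from cells grown in 96-well plates and exposed to compound for 48 hours at five concentrations. The concentration for 50% growth inhibition is given as GI50.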 Active and inactive are the calls of the source. No stated cut-off is given here; in the data, active = GI50 up to about 1.1 µM and inactive = higher.

Columns and labels:
Assay in all cases: inhibition of tumour cell growth, NCI panel, 48 h
[1] = tested on: OVCAR-3
[2] = tested on: SF-295
[3] = tested on: MOLT-4
[4] = tested on: A498
[5] = tested on: HT-29
[6] = tested on: LOX IMVI
[7] = tested on: SK-MEL-2
[8] = tested on: SR
[9] = tested on: Malme-3M
[10] = tested on: RXF 393
[11] = tested on: NCI-H23
[12] = tested on: MDA-MB-231
[13] = tested on: UACC-62
[14] = tested on: T47D
[15] = tested on: SK-OV-3
[16] = tested on: 786-0
[17] = tested on: HOP-62
[18] = tested on: DU-145
[19] = tested on: MDA-N

| SMILES | GI50 [1] | GI50 [2] | GI50 [3] | GI50 [4] | GI50 [5] | GI50 [6] | GI50 [7] | GI50 [8] | GI50 [9] | GI50 [10] | GI50 [11] | GI50 [12] | GI50 [13] | GI50 [14] | GI50 [15] | GI50 [16] | GI50 [17] | GI50 [18] | GI50 [19] |
| --- | --- | --- | --- | --- | --- | --- | --- | --- | --- | --- | --- | --- | --- | --- | --- | --- | --- | --- | --- |
| N#CCCN(CCN(C(=O)Nc1ccccc1)c1ccccc1)C(=O)Nc1ccccc1 | > 100 µM (inactive) | 62.5 µM (inactive) | 28.8 µM (inactive) | > 100 µM (inactive) | > 100 µM (inactive) | 49.8 µM (inactive) | > 100 µM (inactive) | 42 µM (inactive) | > 100 µM (inactive) | > 45.3 µM (inactive) | > 60.1 µM (inactive) | > 100 µM (inactive) | 65 µM (inactive) | > 35.1 µM (inactive) | > 100 µM (inactive) | > 100 µM (inactive) | > 100 µM (inactive) | – | – |
| C=CCN1CN(c2ccccc2)C2(CCN(CCCC3(c4ccc(F)cc4)OCCO3)CC2)C1=O | 14.4 µM (inactive) | 18.5 µM (inactive) | 11 µM (inactive) | – | 5.61 µM (inactive) | 18.5 µM (inactive) | – | 12.1 µM (inactive) | 16.5 µM (inactive) | 14.8 µM (inactive) | 13.5 µM (inactive) | 18.3 µM (inactive) | 18.7 µM (inactive) | 11.6 µM (inactive) | 19.6 µM (inactive) | 17.7 µM (inactive) | 21.1 µM (inactive) | 22.4 µM (inactive) | – |
| COC(=O)C(C(=O)C(=O)Nc1ccccc1C(C)=O)c1nc2ccc(Cl)cc2nc1O (stereo not drawn) | > 100 µM (inactive) | > 100 µM (inactive) | > 100 µM (inactive) | > 100 µM (inactive) | > 100 µM (inactive) | > 100 µM (inactive) | > 100 µM (inactive) | – | > 100 µM (inactive) | 89.7 µM (inactive) | > 100 µM (inactive) | – | > 100 µM (inactive) | – | > 100 µM (inactive) | > 100 µM (inactive) | > 100 µM (inactive) | – | – |
| C/C(=N/N(C=O)C[n+]1ccccc1)C(CN(CC(C)C)CC(C)C)C(=O)Nc1ccc(C)cc1C (stereo not drawn) | > 100 µM (inactive) | 71.8 µM (inactive) | > 100 µM (inactive) | 33.1 µM (inactive) | > 100 µM (inactive) | – | > 100 µM (inactive) | 84.1 µM (inactive) | > 100 µM (inactive) | 42.9 µM (inactive) | > 100 µM (inactive) | – | 79.6 µM (inactive) | – | > 100 µM (inactive) | > 100 µM (inactive) | > 100 µM (inactive) | – | – |
| Nc1c(Cl)ncnc1NCC1(CO)CCC1 | > 100 µM (inactive) | > 100 µM (inactive) | > 100 µM (inactive) | > 100 µM (inactive) | > 100 µM (inactive) | > 100 µM (inactive) | > 100 µM (inactive) | > 100 µM (inactive) | > 100 µM (inactive) | – | > 100 µM (inactive) | > 100 µM (inactive) | – | – | – | > 100 µM (inactive) | > 100 µM (inactive) | > 100 µM (inactive) | > 100 µM (inactive) |
| CCOC(=O)CCC(NC(=O)Cc1ccc(Oc2nc3ccccc3nc2-c2cccs2)cc1)C(=O)OCC (stereo not drawn) | 4.07 µM (inactive) | 40.9 µM (inactive) | > 100 µM (inactive) | 19.4 µM (inactive) | > 100 µM (inactive) | 20.7 µM (inactive) | 56.5 µM (inactive) | > 100 µM (inactive) | 22.7 µM (inactive) | 2.3 µM (inactive) | 61.9 µM (inactive) | 4.08 µM (inactive) | 38.4 µM (inactive) | – | – | 2.49 µM (inactive) | 1.73 µM (inactive) | 7.45 µM (inactive) | – |
| O=C1c2cc3ncsc3cc2C(=O)c2c(O)ccc(O)c21 | > 100 µM (inactive) | > 100 µM (inactive) | > 100 µM (inactive) | > 100 µM (inactive) | > 100 µM (inactive) | > 100 µM (inactive) | > 100 µM (inactive) | > 100 µM (inactive) | > 100 µM (inactive) | > 100 µM (inactive) | > 100 µM (inactive) | > 100 µM (inactive) | > 100 µM (inactive) | – | – | > 100 µM (inactive) | > 100 µM (inactive) | > 100 µM (inactive) | > 100 µM (inactive) |
| c1ccc2c(c1)[n-]n1c3ccc4nonc4c3n[n+]21 | > 100 µM (inactive) | > 100 µM (inactive) | > 100 µM (inactive) | > 100 µM (inactive) | > 100 µM (inactive) | > 100 µM (inactive) | > 100 µM (inactive) | > 100 µM (inactive) | > 100 µM (inactive) | > 100 µM (inactive) | > 100 µM (inactive) | > 100 µM (inactive) | > 100 µM (inactive) | – | – | > 100 µM (inactive) | 84.5 µM (inactive) | > 100 µM (inactive) | > 100 µM (inactive) |
| O=C(NNC(c1ccccc1)C(F)(F)F)c1ccncc1 (stereo not drawn) | – | > 100 µM (inactive) | > 100 µM (inactive) | – | > 100 µM (inactive) | > 100 µM (inactive) | > 100 µM (inactive) | > 100 µM (inactive) | > 100 µM (inactive) | – | > 100 µM (inactive) | > 100 µM (inactive) | – | – | – | > 100 µM (inactive) | > 100 µM (inactive) | > 100 µM (inactive) | – |
| O=C(CCCNC(=O)OCc1ccccc1)OCc1ccc2c(c1)C(=O)c1ccccc1C2=O | > 100 µM (inactive) | 11.3 µM (inactive) | > 100 µM (inactive) | 27.2 µM (inactive) | > 100 µM (inactive) | > 100 µM (inactive) | > 89.7 µM (inactive) | > 100 µM (inactive) | > 100 µM (inactive) | 22.2 µM (inactive) | 45.6 µM (inactive) | – | > 100 µM (inactive) | – | 29.6 µM (inactive) | 25.3 µM (inactive) | 30.6 µM (inactive) | – | – |
| O=C(/C=C\c1ccc(-c2ccccc2)cc1)c1cccs1 | 9.29 µM (inactive) | 29.7 µM (inactive) | 3.1 µM (inactive) | 8.67 µM (inactive) | 3.38 µM (inactive) | 3.88 µM (inactive) | 39.4 µM (inactive) | 2.7 µM (inactive) | – | 10.9 µM (inactive) | 22 µM (inactive) | 48.5 µM (inactive) | 16.4 µM (inactive) | – | 64.9 µM (inactive) | 11.6 µM (inactive) | 25.3 µM (inactive) | 5.56 µM (inactive) | 7.89 µM (inactive) |
| Cc1ccccc1Nc1cn(COCc2ccccc2)c(=O)[nH]c1=O | 79.8 µM (inactive) | > 100 µM (inactive) | 55.2 µM (inactive) | > 100 µM (inactive) | 48.5 µM (inactive) | 59.8 µM (inactive) | – | – | – | > 100 µM (inactive) | 56.5 µM (inactive) | – | 75.2 µM (inactive) | – | – | > 100 µM (inactive) | > 100 µM (inactive) | 80.4 µM (inactive) | > 100 µM (inactive) |
| CCOC(=O)Cc1nc(/C(C#N)=C/c2ccco2)[nH]c(=O)c1C#N | > 100 µM (inactive) | 43.9 µM (inactive) | > 100 µM (inactive) | – | > 100 µM (inactive) | > 100 µM (inactive) | > 100 µM (inactive) | 97.1 µM (inactive) | – | > 100 µM (inactive) | > 100 µM (inactive) | – | 35.4 µM (inactive) | – | > 100 µM (inactive) | > 100 µM (inactive) | > 100 µM (inactive) | – | – |
| Cc1ccc(C)c(NC(=O)C(=O)Nn2c(S)nc3ccccc3c2=O)c1 | – | > 100 µM (inactive) | > 100 µM (inactive) | > 100 µM (inactive) | > 100 µM (inactive) | > 100 µM (inactive) | > 100 µM (inactive) | > 100 µM (inactive) | > 100 µM (inactive) | > 100 µM (inactive) | > 100 µM (inactive) | – | > 100 µM (inactive) | – | > 100 µM (inactive) | > 100 µM (inactive) | > 100 µM (inactive) | – | – |
| Cc1ccc(S(=O)(=O)Oc2nc3ccccc3nc2N(S(=O)(=O)c2ccc(C)cc2)S(=O)(=O)c2ccc(C)cc2)cc1 | 41.5 µM (inactive) | 30.3 µM (inactive) | 47.4 µM (inactive) | 89.9 µM (inactive) | 28.2 µM (inactive) | > 100 µM (inactive) | 81.8 µM (inactive) | – | 49.9 µM (inactive) | 76.4 µM (inactive) | 47.8 µM (inactive) | 71.6 µM (inactive) | 56.5 µM (inactive) | – | > 100 µM (inactive) | 38.6 µM (inactive) | – | 53.8 µM (inactive) | 45 µM (inactive) |
| O=C1c2cccc([N+](=O)[O-])c2C(=O)c2nccnc21 | 1.87 µM (inactive) | 1.82 µM (inactive) | 2.5 µM (inactive) | 5.32 µM (inactive) | 2.25 µM (inactive) | 1.04 µM (active) | 1.45 µM (inactive) | 2.05 µM (inactive) | 1.63 µM (inactive) | 1.95 µM (inactive) | 1.25 µM (inactive) | – | 1.32 µM (inactive) | – | – | 1.78 µM (inactive) | – | – | – |
| CCCCCCCCCCCCCCCC/C(C(=O)OC)=C(/O)C(=O)OCC | > 100 µM (inactive) | > 100 µM (inactive) | > 100 µM (inactive) | > 100 µM (inactive) | > 100 µM (inactive) | > 100 µM (inactive) | 68.9 µM (inactive) | 95.3 µM (inactive) | > 100 µM (inactive) | > 100 µM (inactive) | > 100 µM (inactive) | – | > 100 µM (inactive) | – | > 100 µM (inactive) | > 100 µM (inactive) | > 100 µM (inactive) | – | – |
| O=C(O)c1ccc(C2C(=O)N[C@@H]3CCC[C@H]23)cc1 (stereo partly drawn) | > 100 µM (inactive) | > 100 µM (inactive) | > 100 µM (inactive) | > 100 µM (inactive) | > 100 µM (inactive) | > 100 µM (inactive) | > 100 µM (inactive) | – | > 100 µM (inactive) | > 100 µM (inactive) | > 100 µM (inactive) | – | > 100 µM (inactive) | – | > 100 µM (inactive) | > 100 µM (inactive) | > 100 µM (inactive) | – | – |
